Test results as given in article PMC6268855, “New Trifluoromethyl Triazolopyrimidines as Anti-Plasmodiumfalciparum Agents” (Molecules, 2012).

Columns and labels:
Type in all cases: cell-based
[1] = system: Plasmodium falciparum chloroquine-resistant W2 clone; experiment: [3H]-hypoxanthine incorporation assay on P. falciparum-infected erythrocytes; details: Erythrocyte, W2 clone, 1% parasitemia, 1% hematocrit, read-out: IC50 Plasmodium Falciparum Hypoxanthine
Description: (§1) Briefly, the parasites were kept as described at 37 °C in human erythrocytes (A^+) in complete medium (RPMI 1640 supplemented with 10% human sera blood group A^+, 2% glutamine, and 7.5% NaHCO3) either in Petri dishes in a candle jar or in 25-cm culture flasks in an environment containing a gas mixture atmosphere (3% O2, 5% CO2 and 91% N2). Before testing, the ring-stage parasites were synchronized by sorbitol; the suspension was adjusted for parasitemia and hematocrit as described below for each test used.
(§2) The effects of compounds against the W2 P. falciparum blood cultures were evaluated through incorporation of ^3H hypoxanthine (Perkin Elmer, Waltham, MA, USA) by the parasites. Alternatively, compound effects were also examined using monoclonal antibodies to a commercially available parasite histidine and alanine-rich protein (HRP2) (MPFM ICLLAB-55A®, MPFG55P ICLLAB®, Immunology Consultants Laboratory Inc. (ICL), Portland, OR, USA), as described previously. The [3H]-hypoxanthine assay was performed with 1% of parasitemia and 1% of hematocrit, and the level of isotope incorporation was read in a beta-counter (Perkin Elmer). The anti-HRP2 test was performed with 0.05% parasitemia and 1.5% hematocrit, and the quantification of protein was determined using a specific read at 450 nm in a spectrophotometer (SpectraMax340PC^384, Molecular Devices, Sunnyvale, CA, USA). Drug activities were expressed by the half-maximal inhibitory dose (IC50) compared to the drug-free controls and estimated using the curve-fitting software Origin 8.0 (OriginLab Corporation, Northampton, MA, USA).

[2] = system: human hepatoma cell line (HepG2); details: MTT, 24 h incubation
Description: For in vitro cytotoxicity experiments, the cell monolayer was trypsinized, washed with culture medium, distributed in a flat-bottomed 96-well plate (5 × 10^3 cells/well), and finally incubated for 18 h at 37 °C for cell adherence.
For cytotoxicity testing, we used the (3-(4,5-dimethylthiazol-2-yl)-2,5-diphenyltetrazolium bromide (MTT) assay, performed as described in the literature. The HepG2 cell line was incubated with 20 µL of the compounds in different concentrations (200–25 µg/mL) for 24 h in an atmosphere of 5% CO2 at 37 °C.
For the MTT assay, which evaluates mitochondrial viability, 20 µL of MTT solution (5 mg/mL) was added, and the plates were incubated for an additional 3 h. After incubation, the supernatant was carefully removed from the wells, followed by addition of 100 µL DMSO with thorough mixing. Optical densities at 570 and 630 nm (background) were determined by an ELISA reader.
Cell viability was expressed as the percentage of control absorbance obtained in untreated cells after subtracting the absorbance from appropriate background. Lastly, the minimum lethal dose for 50% of the cells (MLD50) was determined as previously described in the literature. The ratio between MLD50 and drug activity (IC50) in vitro was used to determine the selectivity index (SI).

[3] = system: Plasmodium falciparum chloroquine-resistant W2 clone; experiment: anti-HRP2 test on P. falciparum-infected erythrocytes; details: W2 clone
Description: as §1, §2

CCN(CC)CCCC(C)Nc1cc(C)nc2nc(C(F)(F)F)nn12 (stereo not shown) [Compound 29, 5-Methyl-7-N'-(N,N-diethylpentane-1,4-diamine)-2-(trifluoromethyl)[1,2,4]triazolo[1,5-a]pyrimidine]
IC50 [1]: 39.1 µM
MDL50 HepG2 [2]: >558 µM
IC50 ([3]; Plasmodium falciparum, Erythrocyte, 0.05% parasitemia, 1.5% hematocrit, read-out: IC50 Plasmodium Falciparum Anti-HRP2): 73 ± 17 µM
activity class against P. falciparum ([3]; class by IC50): Inactive
